Calls of active or inactive are those of the source. The rule behind the calls is not given here.
Tested on: CCRIS mutagenicity, Ames/micronucleus/aberration tests
Experiment: CCRIS mutagenicity studies
[1] = Test System: AMES SALMONELLA TYPHIMURIUM, Strain/Indicator: TA98, Metabolic Activation: HAMSTER, LIVER, S-9, AROCLOR 1254 (10%), Method: PREINCUBATION
[2] = Test System: AMES SALMONELLA TYPHIMURIUM, Strain/Indicator: TA98, Metabolic Activation: NONE, Method: PREINCUBATION
[3] = Test System: AMES SALMONELLA TYPHIMURIUM, Strain/Indicator: TA98, Metabolic Activation: RAT, LIVER, S-9, AROCLOR 1254 (10%), Method: PREINCUBATION
[4] = Test System: AMES SALMONELLA TYPHIMURIUM, Strain/Indicator: TA100, Metabolic Activation: HAMSTER, LIVER, S-9, AROCLOR 1254 (10%), Method: PREINCUBATION
[5] = Test System: AMES SALMONELLA TYPHIMURIUM, Strain/Indicator: TA100, Metabolic Activation: NONE, Method: PREINCUBATION
[6] = Test System: AMES SALMONELLA TYPHIMURIUM, Strain/Indicator: TA100, Metabolic Activation: RAT, LIVER, S-9, AROCLOR 1254 (10%), Method: PREINCUBATION
[7] = Test System: AMES SALMONELLA TYPHIMURIUM, Strain/Indicator: TA1535, Metabolic Activation: HAMSTER, LIVER, S-9, AROCLOR 1254 (10%), Method: PREINCUBATION
[8] = Test System: AMES SALMONELLA TYPHIMURIUM, Strain/Indicator: TA1535, Metabolic Activation: NONE, Method: PREINCUBATION
[9] = Test System: AMES SALMONELLA TYPHIMURIUM, Strain/Indicator: TA1535, Metabolic Activation: RAT, LIVER, S-9, AROCLOR 1254 (10%), Method: PREINCUBATION
[10] = Test System: AMES SALMONELLA TYPHIMURIUM, Strain/Indicator: TA1537, Metabolic Activation: NONE, Method: PREINCUBATION
[11] = Test System: AMES SALMONELLA TYPHIMURIUM, Strain/Indicator: TA98, Metabolic Activation: NONE, Method: STANDARD PLATE
[12] = Test System: AMES SALMONELLA TYPHIMURIUM, Strain/Indicator: TA98, Metabolic Activation: RAT, LIVER, S-9, AROCLOR 1254, Method: STANDARD PLATE
[13] = Test System: AMES SALMONELLA TYPHIMURIUM, Strain/Indicator: TA100, Metabolic Activation: NONE, Method: STANDARD PLATE
[14] = Test System: AMES SALMONELLA TYPHIMURIUM, Strain/Indicator: TA100, Metabolic Activation: RAT, LIVER, S-9, AROCLOR 1254, Method: STANDARD PLATE

Which mutagenic call [1] does the source give for CCCCNCC here?
The mutagenic call was “inactive; negative”.

What about the mutagenic call [2] of the same molecule?
Its mutagenic call is “inactive; negative”.

And the mutagenic call [3]?
Its mutagenic call is “inactive; negative”.

What about the mutagenic call [4] of the same molecule?
Its mutagenic call is “inactive; negative”.

What about the mutagenic call [5] of the same molecule?
The mutagenic call was “inactive; negative”.

And the mutagenic call [6]?
Its mutagenic call is “inactive; negative”.

What about the mutagenic call [7] of the same molecule?
The mutagenic call was “inactive; negative”.

What about the mutagenic call [8] of the same molecule?
The mutagenic call was “inactive; negative”.

And the mutagenic call [9]?
The mutagenic call was “inactive; negative”.

What about the mutagenic call (Test System: AMES SALMONELLA TYPHIMURIUM, Strain/Indicator: TA1537, Metabolic Activation: HAMSTER, LIVER, S-9, AROCLOR 1254 (10%), Method: PREINCUBATION) of the same molecule?
Its mutagenic call is “inactive; negative”.

What about the mutagenic call [10] of the same molecule?
Its mutagenic call is “inactive; negative”.

What about the mutagenic call (Test System: AMES SALMONELLA TYPHIMURIUM, Strain/Indicator: TA1537, Metabolic Activation: RAT, LIVER, S-9, AROCLOR 1254 (10%), Method: PREINCUBATION) of the same molecule?
Its mutagenic call is “inactive; negative”.

Which results are given for ClC(Cl)=C(Cl)c1cccc(Cl)c1Cl?
mutagenic call [11]: inactive; negative; mutagenic call [12]: inactive; negative; mutagenic call [13]: inactive; negative; mutagenic call [14]: inactive; negative

What does the source list for CC(=O)N(O)c1ccc2ccccc2c1?
mutagenic call [2]: inactive; negative; mutagenic call (Test System: AMES SALMONELLA TYPHIMURIUM, Strain/Indicator: TA98, Metabolic Activation: RAT, LIVER, CYTOSOL, Method: PREINCUBATION): inactive; negative; mutagenic call (Test System: AMES SALMONELLA TYPHIMURIUM, Strain/Indicator: TA98, Metabolic Activation: RAT, LIVER, MICROSOMES, Method: PREINCUBATION): active; positive

How did the mutagenic call [11] turn out when Brc1ccc2c(c1)[C@@H]1O[C@@H]1[C@H]1CCCC[C@H]21 was run?
Its mutagenic call is “inactive; negative”.

And the mutagenic call [13]?
The mutagenic call was “inactive; negative”.

Which results are given for CN1CCC[C@H]1c1cccnc1?
mutagenic call (End Point: IN VITRO MICRONUCLEUS, Test System: HUMAN GINGIVAL FIBROBLASTS, Metabolic Activation: NONE): active; positive; mutagenic call (End Point: In vivo micronucleus, Test System: Bone marrow polychromatic erythrocytes, Species: Mouse, Strain/Sex: Swiss/Female, Route: Oral): inactive; negative; mutagenic call (Test System: AMES SALMONELLA TYPHIMURIUM, Strain/Indicator: TA97, Metabolic Activation: NONE, Method: STANDARD PLATE): inactive; negative; mutagenic call (Test System: AMES SALMONELLA TYPHIMURIUM, Strain/Indicator: TA97, Metabolic Activation: RAT, LIVER, S-9, AROCLOR 1254, Method: STANDARD PLATE): inactive; negative; mutagenic call [2]: inactive; negative; mutagenic call [11]: inactive; negative; mutagenic call (Test System: AMES SALMONELLA TYPHIMURIUM, Strain/Indicator: TA98, Metabolic Activation: RAT, LIVER, S-9, AROCLOR 1254 (5%), Method: PREINCUBATION): inactive; negative; mutagenic call [12]: inactive; negative; mutagenic call [5]: inactive; negative; mutagenic call [13]: inactive; negative; mutagenic call (Test System: AMES SALMONELLA TYPHIMURIUM, Strain/Indicator: TA100, Metabolic Activation: RAT, LIVER, S-9, AROCLOR 1254 (5%), Method: PREINCUBATION): inactive; negative; mutagenic call [14]: inactive; negative; mutagenic call [8]: inactive; negative; mutagenic call (Test System: AMES SALMONELLA TYPHIMURIUM, Strain/Indicator: TA1535, Metabolic Activation: RAT, LIVER, S-9, AROCLOR 1254 (5%), Method: PREINCUBATION): inactive; negative; mutagenic call [10]: inactive; negative; mutagenic call (Test System: AMES SALMONELLA TYPHIMURIUM, Strain/Indicator: TA1537, Metabolic Activation: RAT, LIVER, S-9, AROCLOR 1254 (5%), Method: PREINCUBATION): inactive; negative; mutagenic call (Test System: AMES SALMONELLA TYPHIMURIUM, Strain/Indicator: TA1538, Metabolic Activation: NONE, Method: PREINCUBATION): inactive; negative; mutagenic call (Test System: AMES SALMONELLA TYPHIMURIUM, Strain/Indicator: TA1538, Metabolic Activation: RAT, LIVER, S-9, AROCLOR 1254 (5%), Method: PREINCUBATION): inactive; negative

For O=[N+]([O-])c1ccc(Nc2ccc(O)cc2)c([N+](=O)[O-])c1, which mutagenic call (Test System: AMES SALMONELLA TYPHIMURIUM, Strain/Indicator: TA97, Metabolic Activation: HAMSTER, LIVER, S-9, AROCLOR 1254 (10%), Method: PREINCUBATION) is on record?
The mutagenic call was “active; positive”.

And the mutagenic call (Test System: AMES SALMONELLA TYPHIMURIUM, Strain/Indicator: TA97, Metabolic Activation: NONE, Method: PREINCUBATION)?
The mutagenic call was “inactive; negative”.

And the mutagenic call (Test System: AMES SALMONELLA TYPHIMURIUM, Strain/Indicator: TA97, Metabolic Activation: RAT, LIVER, S-9, AROCLOR 1254 (10%), Method: PREINCUBATION)?
The mutagenic call was “inactive; negative”.

What about the mutagenic call [1] of the same molecule?
Its mutagenic call is “active; positive”.

And the mutagenic call [2]?
Its mutagenic call is “active; positive”.

What about the mutagenic call [3] of the same molecule?
The mutagenic call was “active; positive”.

And the mutagenic call [4]?
The mutagenic call was “active; positive”.

What about the mutagenic call [5] of the same molecule?
The mutagenic call was “active; positive”.

And the mutagenic call [6]?
Its mutagenic call is “active; positive”.

And the mutagenic call [7]?
Its mutagenic call is “inactive; negative”.

And the mutagenic call [8]?
Its mutagenic call is “inactive; negative”.

What about the mutagenic call [9] of the same molecule?
Its mutagenic call is “inactive; negative”.

With NC1CCN(c2nc3c(cc2F)c(=O)c(C(=O)O)cn3-c2ccc(F)cc2F)C1 (centres undefined) as the molecule, how does the mutagenic call (Test System: AMES SALMONELLA TYPHIMURIUM, Strain/Indicator: TA102, Metabolic Activation: NONE, Method: STANDARD PLATE) read?
Its mutagenic call is “active; positive”.

Which mutagenic call (End Point: In vitro chromosomal aberrations, Test System: Chinese hamster lung (CHL/IU) cells, Metabolic Activation: Rat, Liver, S9, Phenobarbital and 5,6-benzoflavone) does the source give for C=CC(=O)OCCO here?
The mutagenic call was “active; positive (structural changes and ploidy)”.

What about the mutagenic call (Test System: AMES SALMONELLA TYPHIMURIUM, Strain/Indicator: TA102, Metabolic Activation: RAT, LIVER, S-9, PHENOBARBITAL AND 5,6-BENZOFLAVONE, Method: STANDARD PLATE) of the same molecule?
The mutagenic call was “inactive; negative”.

And the mutagenic call (Test System: AMES SALMONELLA TYPHIMURIUM, Strain/Indicator: TA2638, Metabolic Activation: RAT, LIVER, S-9, PHENOBARBITAL AND 5,6-BENZOFLAVONE, Method: STANDARD PLATE)?
The mutagenic call was “inactive; negative”.

What about the mutagenic call (Test System: Ames Salmonella typhimurium, Strain/Indicator: TA98, Metabolic Activation: None, Method: Preincubation) of the same molecule?
The mutagenic call was “inactive; negative”.

And the mutagenic call (Test System: Ames Salmonella typhimurium, Strain/Indicator: TA98, Metabolic Activation: Rat, Liver, S9, Sodium phenobarbital and 5,6-benzoflavone (10%), Method: Preincubation)?
Its mutagenic call is “inactive; negative”.

And the mutagenic call (Test System: Ames Salmonella typhimurium, Strain/Indicator: TA100, Metabolic Activation: None, Method: Preincubation)?
Its mutagenic call is “inactive; negative”.

What about the mutagenic call (Test System: Ames Salmonella typhimurium, Strain/Indicator: TA100, Metabolic Activation: Rat, Liver, S9, Sodium phenobarbital and 5,6-benzoflavone (10%), Method: Preincubation) of the same molecule?
The mutagenic call was “inactive; negative”.

And the mutagenic call (Test System: Ames Salmonella typhimurium, Strain/Indicator: TA1535, Metabolic Activation: None, Method: Preincubation)?
The mutagenic call was “inactive; negative”.

What about the mutagenic call (Test System: Ames Salmonella typhimurium, Strain/Indicator: TA1535, Metabolic Activation: Rat, Liver, S9, Sodium phenobarbital and 5,6-benzoflavone (10%), Method: Preincubation) of the same molecule?
The mutagenic call was “inactive; negative”.

What about the mutagenic call (Test System: Ames Salmonella typhimurium, Strain/Indicator: TA1537, Metabolic Activation: None, Method: Preincubation) of the same molecule?
Its mutagenic call is “inactive; negative”.

What about the mutagenic call (Test System: Ames Salmonella typhimurium, Strain/Indicator: TA1537, Metabolic Activation: Rat, Liver, S9, Sodium phenobarbital and 5,6-benzoflavone (10%), Method: Preincubation) of the same molecule?
Its mutagenic call is “inactive; negative”.

And the mutagenic call (Test System: E. COLI, Strain/Indicator: WP2 (PKM101), Metabolic Activation: RAT, LIVER, S-9, PHENOBARBITAL AND 5,6-BENZOFLAVONE, Method: STANDARD PLATE)?
The mutagenic call was “active; positive”.

What about the mutagenic call (Test System: E. COLI, Strain/Indicator: WP2 UVRA (PKM101), Metabolic Activation: RAT, LIVER, S-9, PHENOBARBITAL AND 5,6-BENZOFLAVONE, Method: STANDARD PLATE) of the same molecule?
The mutagenic call was “active; positive”.

And the mutagenic call (Test System: E. coli, Strain/Indicator: WP2uvrA/pKM101, Metabolic Activation: None, Method: Preincubation)?
The mutagenic call was “active; positive”.

What about the mutagenic call (Test System: MOUSE LYMPHOMA, Strain/Indicator: L5178Y (TK+/TK-), Metabolic Activation: NONE, Method: SUSPENSION/PLATE) of the same molecule?
The mutagenic call was “active; positive”.

How did the mutagenic call (Test System: MOUSE LYMPHOMA, Strain/Indicator: L5178Y (TK+/TK-), Metabolic Activation: NONE) turn out when FC(F)(F)c1ccc(Cl)nc1 was run?
The mutagenic call was “active; positive”.

What about the mutagenic call (Test System: MOUSE LYMPHOMA, Strain/Indicator: L5178Y (TK+/TK-), Metabolic Activation: RAT, LIVER, S-9, AROCLOR 1254) of the same molecule?
Its mutagenic call is “active; positive”.

— PubChem BioAssay AID1259407 (Chemical Carcinogenesis Research Information System (CCRIS), 2018)
